Reference: US4259336A, “4-Hydroxy-2H-[1]-benzothieno [2,3-e]-1,2-thiazine-3-carboxamide-1,1-dioxides and salts thereof” (Boehringer Ingelheim GmbH, priority 1978, dated 1981)
Read-outs that look alike come from different tables or passages of the source.

Assays:
[1] = target: T1, prostaglandin synthetases (Bos taurus, UniProt O62664); assay: Anti-inflammatory activity: inhibition of prostaglandin biosynthesis (prostaglandin synthetases, microsomal extract from bovine seminal vesicles); type: biochemical; conditions: 14C-arachidonic acid substrate, read-out: EC50 in mol (50% decrease in the amount of prostaglandins)
T1 construct: isolated as a microsomal extract from bovine seminal vesicles; from tissue; host or cells: bovine seminal vesicles (microsomal extract)
T1 sequence (O62664 25-600): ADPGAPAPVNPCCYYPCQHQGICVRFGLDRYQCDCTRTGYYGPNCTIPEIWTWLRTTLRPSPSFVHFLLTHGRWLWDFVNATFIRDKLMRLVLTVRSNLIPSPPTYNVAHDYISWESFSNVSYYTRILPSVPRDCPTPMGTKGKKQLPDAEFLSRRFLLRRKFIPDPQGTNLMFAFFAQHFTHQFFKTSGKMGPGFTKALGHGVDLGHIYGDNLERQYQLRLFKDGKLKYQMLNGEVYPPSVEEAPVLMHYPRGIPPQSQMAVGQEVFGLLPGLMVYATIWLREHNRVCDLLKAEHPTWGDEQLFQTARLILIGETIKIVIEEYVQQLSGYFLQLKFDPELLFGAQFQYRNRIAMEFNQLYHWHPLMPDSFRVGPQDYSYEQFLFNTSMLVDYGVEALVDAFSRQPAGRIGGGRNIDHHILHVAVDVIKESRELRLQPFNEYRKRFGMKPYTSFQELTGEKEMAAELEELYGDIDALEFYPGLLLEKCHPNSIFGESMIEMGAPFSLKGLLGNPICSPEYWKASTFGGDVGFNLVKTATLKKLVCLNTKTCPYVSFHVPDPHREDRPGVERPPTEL
Method: Therefore, the anti-inflammatory activity was determined as the activity against the prostaglandin synthetases:
^14 C-arachidonic acid served as the substrate. The prostaglandins biosynthetisized therefrom were separated chromatographically from the ^14 C-arachidonic acid, and the remaining substrate and product were measured radiochemically.

[2] = test system: thrombocyte aggregation in platelet-rich plasma of healthy test persons (collagen); assay: Inhibition of blood-platelet aggregation (Born test), collagen-induced, platelet-rich plasma; type: cell-based, healthy test persons (human); conditions: Homo sapiens, read-out: Percentage change in light permeability of plasma (Born test); for inhibition at 1 µM: 10^-6 mol/liter; for inhibition at 20 µM: 2.10^-5 mol/liter; for inhibition at 2 µM: 2.10^-6 mol/liter; for inhibition at 0.2 µM: 2.10^-7 mol/liter
Method: The decrease in the optical density of platelet suspensions was measured photometrically and recorded after the addition of collagen. From the angle of inclination of the density curve the velocity of aggregation was estimated. The optical density was taken as the point on the curve where the most light was transmitted. The doses of collagen were chosen so as to be sufficient to produce irreversible aggregation. […] Commercial collagen sold by Hormonchemie, Munich, Germany, was used.

rats = assay: Acute toxicity, peroral, rats; type: in vivo; conditions: 100 mg/kg p.o., observed 24 hours
Method: (§1) The acute toxicity was determined in rats of both sexes (1:1) with a body weight of 120-150 gm. The test compound was perorally administered as a suspension in 1% methyl-cellulose (1 ml/100gm animal) by means of an esophageal sound.

[3] = Acute toxicity, peroral, rats; type: in vivo; conditions: rat, in vivo, po, suspension in 1% methyl-cellulose, observed 24 hours
Method: as §1

[4] = 10^-5 mol/liter, collagen, =% decrease in aggregation vs control
[5] = collagen, =% decrease in aggregation vs control

SMILES	EC50 ([1]; DMSO 2%)	animals died (rats)	LD50 at 24 h [3]	inhibition at 20 µM [2, 5]	inhibition at 2 µM [2, 5]	also measured
CN1C(C(=O)Nc2nccs2)=C(O)c2sc3ccccc3c2S1(=O)=O [A, 4-Hydroxy-2-methyl-N-(2-thiazolyl)-2H-[1] benzothieno-[2,3-e]-1,2-thiazine-3-carboxamide-1,1-dioxide]	39 nM	0 out of 10	> 100 mg/kg	–	–	inhibition at 10 µM [2, 4]: 94%; inhibition at 1 µM [2, 5]: 73%; inhibition at 0.1 µM ([2]; 10^-7 mol/liter, collagen, =% decrease in aggregation vs control): 14%
CN1C(C(=O)Nc2ncc(Cl)s2)=C(O)c2sc3ccccc3c2S1(=O)=O [J, N-(5-Chloro-2-thiazolyl)-4-hydroxy-2-methyl-2H-[1] benzothieno [2,3-e]-1,2-thiazine-3-carboxamide-1,1-dioxide]	47 nM	0 out of 10	> 100 mg/kg	–	–	–
CC(=O)Oc1ccccc1C(=O)O [V, Acetylsalicyclic acid, reference compound]	–	–	–	–	–	inhibition at 10 µM [2]: 13%; inhibition at 30 µM [2]: 45%
CN1C(C(=O)Nc2nc3ccccc3s2)=C(O)c2sc3ccccc3c2S1(=O)=O [I, N-(2-Benzothiazolyl)-4-hydroxy-2-methyl-2H-[1] benzothieno [2,3-e]-1,2-thiazine-3-carboxamide-1,1-dioxide]	22 nM	0 out of 10	> 100 mg/kg	–	–	–
Cc1cccc(NC(=O)C2=C(O)c3sc4cc(Cl)ccc4c3S(=O)(=O)N2C)n1 [H, 7-Chloro-4-hydroxy-2-methyl-N-(6-methyl-2-pyridyl)-2H-[1] benzothieno [2,3-e]-1,2-thiazine-3-carboxamide-1,1-dioxide]	–	–	–	89%	88%	inhibition at 0.2 µM [2, 5]: 33%
CN1C(C(=O)Nc2nccs2)=C(O)c2ccccc2S1(=O)=O [W, Sudoxicam, reference compound]	7000 nM	–	–	–	–	–
Cc1ccnc(NC(=O)C2=C(O)c3sc4cc(Cl)ccc4c3S(=O)(=O)N2C)c1 [G, 7-Chloro-4-hydroxy-2-methyl-N-(4-methyl-2-pyridyl)-2H-[1]-benzothieno [2,3-e]-1,2-thiazine-3-carboxamide-1,1-dioxide]	–	–	–	66%	33%	–
Cc1cccc(NC(=O)C2=C(O)c3sc4ccccc4c3S(=O)(=O)N2C)n1 [B, 4-Hydroxy-2-methyl-N-(6-methyl-2-pyridyl)-2H-[1] benzothieno [2,3-e]-1,2-thiazine-3-carboxamide-1,1-dioxide]	–	–	–	–	–	inhibition at 4 µM ([2]; 4.10^-6 mol/liter, collagen, =% decrease in aggregation vs control): 100%; inhibition at 0.4 µM ([2]; 4.10^-7 mol/liter, collagen, =% decrease in aggregation vs control): 71%
Cc1nc(NC(=O)C2=C(O)c3sc4ccccc4c3S(=O)(=O)N2C)sc1C [K, N-(4,5-Dimethyl-2-thiazolyl)-4-hydroxy-2-methyl-2H-[1]-benzothieno [2,3-e]-1,2-thiazine-3-carboxamide-1,1-dioxide]	–	0 out of 10	> 100 mg/kg	–	–	EC50 ([1]; DMSO 10%): 250 nM
Cc1csc(NC(=O)C2=C(O)c3sc4ccccc4c3S(=O)(=O)N2C)n1 [C, 4-Hydroxy-2-methyl-N-(4-methyl-2-thiazolyl)-2H-[1] benzothieno [2,3-e]-1,2-thiazine-3-carboxamide-1,1-dioxide]	21 nM	0 out of 10	> 100 mg/kg	–	–	inhibition at 10 µM [2, 4]: 93%; inhibition at 1 µM [2, 5]: 57%
Cc1ccnc(NC(=O)C2=C(O)c3sc4cc(C)ccc4c3S(=O)(=O)N2C)c1 [E, 2,7-Dimethyl-4-hydroxy-N-(4-methyl-2-pyridyl)-2H-[1]-benzothieno [2,3-e]-1,2-thiazine-3-carboxamide-1,1-dioxide]	–	–	–	72%	34%	–
Cc1ccnc(NC(=O)C2=C(O)c3sc4ccccc4c3S(=O)(=O)N2C)c1 [D, 4-Hydroxy-2-methyl-N-(4-methyl-2-pyridyl)-2H-[1]-benzothieno-[2,3-e]-1,2-thiazine-3-carboxamide-1,1-dioxide]	–	–	–	88%	60%	inhibition at 0.2 µM [2, 5]: 19%
Cc1ccc2c3c(sc2c1)C(O)=C(C(=O)Nc1cccc(C)n1)N(C)S3(=O)=O [F, 2,7-Dimethyl-4-hydroxy-N-(6-methyl-2-pyridyl)-2H-[1]-benzothieno [2,3-e]-1,2-thiazine-3-carboxamide-1,1-dioxide]	–	–	–	90%	77%	inhibition at 0.2 µM [2, 5]: 30%
